Tests used:
[1] = system: C activation in dog serum; experiment: Complement activation by different activators in dog serum, pan-species C3 method; assay type: biochemical; conditions: SC5b-9 ELISA to determine SC5b-9
Description: Methods • The sera that were not of commercial origin were prepared from freshly drawn blood, which was let to clot at room temperature for 10-30 min, followed by centrifugation and collection of the supernatant. The serum was then stored at −80° C. until use. Zymosan (final concentration: 1.3 mg/ml) was prepared by suspending it at 2% in 0.15 M sodium chloride, boiling in a water bath for one hour, then centrifuged for 30 minutes at 4000 rpm. The supernatant was discarded and the residue suspended evenly in 0.15 M sodium chloride to 2%. • HAGG was diluted 100-fold (to a final concentration: 0.5 mg/mL). • 10 μL Zymosan (20 mg/ml) or HAGG were incubated for 1 h at 37° C. with a mixture of 20 μL animal serum, and 20 μl C3depl-NHS 100 μl PBS. The reaction was stopped by the addition of the 10 μl stop solution, and 100 μL of a 1:1600 dilution from the mixtures were applied to the wells of the SC5b-9 ELISA plates to measure the formation of SC5b-9 as specified by the manufacturer.
Materials and Methods • Dog blood was obtained from WellPet Animal Clinic (Kecskemét, Géza Fejedelem körút 51. Hungary). Serum was prepared by letting the blood clot at 4° C. for about 10 min (dog blood clots rapidly), followed by centrifugation and collection of supernatant serum. […]

[2] = system: rat C3; experiment: C3 consumption in rats in vivo, PS-C3 method in hirudinized plasma samples; conditions: 12.5 U/kg CVF
Description: Male Wistar rats (340-480 g) were anesthetized i.p. by Na-pentobarbital (Nembutal, 50 mg/kg) or thiobutabarbital (lnactin, 120 mg/kg). The left femoral artery and vein, left carotid artery, and right jugular vein were cannulated. Rats were anticoagualated with lepirudin (Refludan, 5 mg/kg), then injected i.v. with the C activator liposomes, Doxil and Ambisome. Blood samples were collected from the carotid artery at start (time 0) and at 1-3-5-10-30 min postinjection.
Similar experiments as described in Example 7, except that the rats were injected with 10 mg/kg zymosan or 12.5 U/kg CVF.
Similar experiments as described in Example 11, except that C activation was measured by Quidel's human SC5b-9 (A) and C3a kits (B). Rats were injected with 12.5 U/kg CVF.

Molecule | rise of SC5b-9 over PBS control [1] | human C3a in the reaction mixture (Quidel's C3a kit) [2] | time to consume essentially all C3 [2] | C3 consumed ([2]; within 30 min)
CCCCCCCC/C=C\CCCCCCCC(=O)OCCOCC(OCCO)C1OCC(OCCO)C1OCCO (stereo not shown) [Tween 80] | ~30 fold |  |  | 
CVF |  | elevated | ≤ 30 min | essentially all C3

From US10254288B2, “Method for species-independent measurement of complement activation in animals” (Quidel Corporation, priority 2013, dated 2019)
